# Assay results from patent publication US6525001B1, “Substituted pyrimidine and pyridine herbicides” (Mid-American Commercialization Corporation, priority 1997, dated 2003).
# Tests used:
# Format in all cases: in vivo
# [1] = tested on: bedstraw (Galium aparine); assay: Test B pre-/postemergence; parameters: key: 0 is no effect; 10 is complete control
# From the text: (§1) Seeds of bedstraw (Galium aparine), blackgrass (Alopecurus myosuroides), broadleaf signalgrass (Brachiaria decumbens), cocklebur (Xanthium strumarium), corn (Zea mays), crabgrass (Digitaria sanguinalis), giant foxtail (Setaria faberii), lambsquarters (Chenopodium album), momingglory (Ipomoea hederacea), pigweed (Amaranthus retroflexus), rape (Brassica napus), soybean (Glycine max), sugar beet (Beta vulgaris), velvetleaf (Abutilon theophrasti), wheat (Triticum aestivum), wild oat (Avena fatua) and purple nutsedge (Cyperus rotundus) tubers were planted and treated preemergence with test chemicals formulated in a non-phytotoxic solvent mixture which included a surfactant.
# (§2) At the same time, these crop and weed species were also treated with postemergence applications of test chemicals formulated in the same manner. Plants ranged in height from 2 to 18 cm (1- to 4-leaf stage) for postemergence treatments. Plant species in the flood test consisted of rice (Oryza sativa), smallflower flatsedge (Cyperus difformis), duck salad (Heteranthera limosa) and bamyardgrass (Echinochloa crus-galli) grown to the 2-leaf stage for testing. Treated plants and controls were maintained in a greenhouse for twelve to sixteen days, after which all species were compared to controls and visually evaluated. Plant response ratings, summarized in Table B, are based on a scale of 0 to 10 where 0 is no effect and 10 is complete control. A dash (−) response means no test result.
# [2] = tested on: blackgrass (Alopecurus myosuroides); assay: Test B pre-/postemergence; parameters: key: 0 is no effect; 10 is complete control
# From the text: as §1, §2
# [3] = tested on: broadleaf signalgrass (Brachiaria decumbens); assay: Test B pre-/postemergence; parameters: key: 0 is no effect; 10 is complete control
# From the text: as §1, §2
# [4] = tested on: cocklebur (Xanthium strumarium); assay: Test B pre-/postemergence; parameters: key: 0 is no effect; 10 is complete control
# From the text: as §1, §2
# [5] = tested on: corn (Zea mays); assay: Test B pre-/postemergence; parameters: key: 0 is no effect; 10 is complete control
# From the text: as §1, §2
# [6] = tested on: crabgrass (Digitaria sanguinalis); assay: Test B pre-/postemergence; parameters: key: 0 is no effect; 10 is complete control
# From the text: as §1, §2
# [7] = tested on: giant foxtail (Setaria faberii); assay: Test B pre-/postemergence; parameters: key: 0 is no effect; 10 is complete control
# From the text: as §1, §2
# [8] = tested on: momingglory (Ipomoea hederacea); assay: Test B pre-/postemergence; parameters: key: 0 is no effect; 10 is complete control
# From the text: as §1, §2
# [9] = tested on: pigweed (Amaranthus retroflexus); assay: Test B pre-/postemergence; parameters: key: 0 is no effect; 10 is complete control
# From the text: as §1, §2
# [10] = tested on: purple nutsedge (Cyperus rotundus); assay: Test B pre-/postemergence; parameters: key: 0 is no effect; 10 is complete control
# From the text: as §1, §2
# [11] = tested on: rape (Brassica napus); assay: Test B pre-/postemergence; parameters: key: 0 is no effect; 10 is complete control
# From the text: as §1, §2
# [12] = tested on: soybean (Glycine max); assay: Test B pre-/postemergence; parameters: key: 0 is no effect; 10 is complete control
# From the text: as §1, §2
# [13] = tested on: sugar beet (Beta vulgaris); assay: Test B pre-/postemergence; parameters: key: 0 is no effect; 10 is complete control
# From the text: as §1, §2
# [14] = tested on: velvetleaf (Abutilon theophrasti); assay: Test B pre-/postemergence; parameters: key: 0 is no effect; 10 is complete control
# From the text: as §1, §2
# [15] = tested on: wheat (Triticum aestivum); assay: Test B pre-/postemergence; parameters: key: 0 is no effect; 10 is complete control
# From the text: as §1, §2
# [16] = tested on: wild oat (Avena fatua); assay: Test B pre-/postemergence; parameters: key: 0 is no effect; 10 is complete control
# From the text: as §1, §2
# [17] = tested on: bamyardgrass (Echinochloa crus-galli); assay: Test B flood test
# Procedure, shortened: (§3)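 Read-out is a visual response score from 0 (no effect) to 10 (complete control), assigned by comparison with untreated controls. Treatment was applied at the 2-leaf stage, and plants stayed in the greenhouse for twelve to sixteen days before scoring.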
# [18] = tested on: duck salad (Heteranthera limosa); assay: Test B flood test
# Procedure, shortened: as §3
# [19] = tested on: rice (Oryza sativa); assay: Test B flood test
# Procedure, shortened: as §3
# [20] = tested on: smallflower flatsedge (Cyperus difformis); assay: Test B flood test
# Procedure, shortened: as §3
# [21] = Rate 62 g/ha, Postemergence (flood test)
# [22] = Rate 125 g/ha, Postemergence, flood test
# [23] = Rate 250 g/ha, Postemergence (flood test species)
structure (smiles),measurement,setting,value
Cc1cnc(-c2ccc(F)c(Cl)c2)nc1Cc1cccc(C(F)(F)F)c1 [Compound 25],"Plant response rating, Bedstraw","[1]; Rate 62 g/ha, Postemergence",9
same,Bedstraw plant response rating,"[1]; Rate 62 g/ha, Preemergence",1
same,"Plant response rating, Bedstraw","[1]; Rate 125 g/ha, Postemergence",10
same,Bedstraw plant response rating,"[1]; Rate 125 g/ha, Preemergence",1
same,"Plant response rating, Bedstraw","[1]; Rate 250 g/ha, Postemergence",10
same,"Plant response rating, Bedstraw","[1]; Rate 250 g/ha, Preemergence",2
same,"Plant response rating, Blackgrass","[2]; Rate 62 g/ha, Postemergence",3
same,Blackgrass plant response rating,"[2]; Rate 62 g/ha, Preemergence",1
same,"Plant response rating, Blackgrass","[2]; Rate 125 g/ha, Postemergence",4
same,Blackgrass plant response rating,"[2]; Rate 125 g/ha, Preemergence",5
same,"Plant response rating, Blackgrass","[2]; Rate 250 g/ha, Postemergence",8
same,"Plant response rating, Blackgrass","[2]; Rate 250 g/ha, Preemergence",8
same,"Plant response rating, B. signalgrass","[3]; Rate 62 g/ha, Postemergence",2
same,B. signalgrass plant response rating,"[3]; Rate 62 g/ha, Preemergence",1
same,"Plant response rating, B. signalgrass","[3]; Rate 125 g/ha, Postemergence",3
same,B. signalgrass plant response rating,"[3]; Rate 125 g/ha, Preemergence",2
same,"Plant response rating, B. signalgrass","[3]; Rate 250 g/ha, Postemergence",3
same,"Plant response rating, B. signalgrass","[3]; Rate 250 g/ha, Preemergence",6
same,"Plant response rating, Cocklebur","[4]; Rate 62 g/ha, Postemergence",9
same,Cocklebur plant response rating,"[4]; Rate 62 g/ha, Preemergence",0
same,"Plant response rating, Cocklebur","[4]; Rate 125 g/ha, Postemergence",9
same,Cocklebur plant response rating,"[4]; Rate 125 g/ha, Preemergence",0
same,"Plant response rating, Cocklebur","[4]; Rate 250 g/ha, Postemergence",9
same,"Plant response rating, Cocklebur","[4]; Rate 250 g/ha, Preemergence",8
same,"Plant response rating, Corn","[5]; Rate 62 g/ha, Postemergence",1
same,Corn plant response rating,"[5]; Rate 62 g/ha, Preemergence",0
same,"Plant response rating, Corn","[5]; Rate 125 g/ha, Postemergence",2
same,Corn plant response rating,"[5]; Rate 125 g/ha, Preemergence",0
same,"Plant response rating, Corn","[5]; Rate 250 g/ha, Postemergence",3
same,"Plant response rating, Corn","[5]; Rate 250 g/ha, Preemergence",0
same,"Plant response rating, Crabgrass","[6]; Rate 62 g/ha, Postemergence",7
same,Crabgrass plant response rating,"[6]; Rate 62 g/ha, Preemergence",0
same,"Plant response rating, Crabgrass","[6]; Rate 125 g/ha, Postemergence",7
same,Crabgrass plant response rating,"[6]; Rate 125 g/ha, Preemergence",0
same,"Plant response rating, Crabgrass","[6]; Rate 250 g/ha, Postemergence",10
same,"Plant response rating, Crabgrass","[6]; Rate 250 g/ha, Preemergence",1
same,"Plant response rating, Giant foxtail","[7]; Rate 62 g/ha, Postemergence",3
same,Giant foxtail plant response rating,"[7]; Rate 62 g/ha, Preemergence",1
same,"Plant response rating, Giant foxtail","[7]; Rate 125 g/ha, Postemergence",6
same,Giant foxtail plant response rating,"[7]; Rate 125 g/ha, Preemergence",4
same,"Plant response rating, Giant foxtail","[7]; Rate 250 g/ha, Postemergence",8
same,"Plant response rating, Giant foxtail","[7]; Rate 250 g/ha, Preemergence",9
same,"Plant response rating, Morningglory","[8]; Rate 62 g/ha, Postemergence",10
same,Morningglory plant response rating,"[8]; Rate 62 g/ha, Preemergence",3
same,"Plant response rating, Morningglory","[8]; Rate 125 g/ha, Postemergence",10
same,Morningglory plant response rating,"[8]; Rate 125 g/ha, Preemergence",3
same,"Plant response rating, Morningglory","[8]; Rate 250 g/ha, Postemergence",10
same,"Plant response rating, Morningglory","[8]; Rate 250 g/ha, Preemergence",10
same,"Plant response rating, Redroot pigweed","[9]; Rate 62 g/ha, Postemergence",10
same,Redroot pigweed plant response rating,"[9]; Rate 62 g/ha, Preemergence",1
same,"Plant response rating, Redroot pigweed","[9]; Rate 125 g/ha, Postemergence",10
same,Redroot pigweed plant response rating,"[9]; Rate 125 g/ha, Preemergence",3
same,"Plant response rating, Redroot pigweed","[9]; Rate 250 g/ha, Postemergence",10
same,"Plant response rating, Redroot pigweed","[9]; Rate 250 g/ha, Preemergence",9
same,"Plant response rating, Nutsedge","[10]; Rate 62 g/ha, Postemergence",1
same,Nutsedge plant response rating,"[10]; Rate 62 g/ha, Preemergence",0
same,"Plant response rating, Nutsedge","[10]; Rate 125 g/ha, Postemergence",1
same,Nutsedge plant response rating,"[10]; Rate 125 g/ha, Preemergence",0
same,"Plant response rating, Nutsedge","[10]; Rate 250 g/ha, Postemergence",2
same,"Plant response rating, Nutsedge","[10]; Rate 250 g/ha, Preemergence",0
same,"Plant response rating, Rape","[11]; Rate 62 g/ha, Postemergence",10
same,Rape plant response rating,"[11]; Rate 62 g/ha, Preemergence",2
same,"Plant response rating, Rape","[11]; Rate 125 g/ha, Postemergence",10
same,Rape plant response rating,"[11]; Rate 125 g/ha, Preemergence",7
same,"Plant response rating, Rape","[11]; Rate 250 g/ha, Postemergence",10
same,"Plant response rating, Rape","[11]; Rate 250 g/ha, Preemergence",10
same,"Plant response rating, Soybean","[12]; Rate 62 g/ha, Postemergence",4
same,Soybean plant response rating,"[12]; Rate 62 g/ha, Preemergence",0
same,"Plant response rating, Soybean","[12]; Rate 125 g/ha, Postemergence",7
same,Soybean plant response rating,"[12]; Rate 125 g/ha, Preemergence",0
same,"Plant response rating, Soybean","[12]; Rate 250 g/ha, Postemergence",7
same,"Plant response rating, Soybean","[12]; Rate 250 g/ha, Preemergence",1
same,"Plant response rating, Sugarbeets","[13]; Rate 62 g/ha, Postemergence",10
same,Sugarbeets plant response rating,"[13]; Rate 62 g/ha, Preemergence",6
same,"Plant response rating, Sugarbeets","[13]; Rate 125 g/ha, Postemergence",10
same,Sugarbeets plant response rating,"[13]; Rate 125 g/ha, Preemergence",8
same,"Plant response rating, Sugarbeets","[13]; Rate 250 g/ha, Postemergence",10
same,"Plant response rating, Sugarbeets","[13]; Rate 250 g/ha, Preemergence",9
same,"Plant response rating, Velvetleaf","[14]; Rate 62 g/ha, Postemergence",8
same,Velvetleaf plant response rating,"[14]; Rate 62 g/ha, Preemergence",0
same,"Plant response rating, Velvetleaf","[14]; Rate 125 g/ha, Postemergence",9
same,Velvetleaf plant response rating,"[14]; Rate 125 g/ha, Preemergence",0
same,"Plant response rating, Velvetleaf","[14]; Rate 250 g/ha, Postemergence",9
same,"Plant response rating, Velvetleaf","[14]; Rate 250 g/ha, Preemergence",2
same,"Plant response rating, Wheat","[15]; Rate 62 g/ha, Postemergence",2
same,Wheat plant response rating,"[15]; Rate 62 g/ha, Preemergence",0
same,"Plant response rating, Wheat","[15]; Rate 125 g/ha, Postemergence",4
same,Wheat plant response rating,"[15]; Rate 125 g/ha, Preemergence",1
same,"Plant response rating, Wheat","[15]; Rate 250 g/ha, Postemergence",4
same,"Plant response rating, Wheat","[15]; Rate 250 g/ha, Preemergence",2
same,"Plant response rating, Wild oats","[16]; Rate 62 g/ha, Postemergence",3
same,Wild oats plant response rating,"[16]; Rate 62 g/ha, Preemergence",1
same,"Plant response rating, Wild oats","[16]; Rate 125 g/ha, Postemergence",3
same,Wild oats plant response rating,"[16]; Rate 125 g/ha, Preemergence",3
same,"Plant response rating, Wild oats","[16]; Rate 250 g/ha, Postemergence",4
same,"Plant response rating, Wild oats","[16]; Rate 250 g/ha, Preemergence",5
same,"Plant response rating, Barnyardgrass",[17]; [21],3
same,"Plant response rating, Barnyardgrass",[17]; [22],4
same,"Plant response rating, Barnyardgrass",[17]; [23],5
same,"Plant response rating, Ducksalad",[18]; [21],3
same,"Plant response rating, Ducksalad",[18]; [22],4
same,"Plant response rating, Ducksalad",[18]; [23],6
same,"Plant response rating, Rice",[19]; [21],3
same,"Plant response rating, Rice",[19]; [22],4
same,"Plant response rating, Rice",[19]; [23],5
same,"Plant response rating, S. Flatsedge",[20]; [21],3
same,"Plant response rating, S. Flatsedge",[20]; [22],5
same,"Plant response rating, S. Flatsedge",[20]; [23],7
